Assay results as given in publication PMC11822212, “High-throughput screening identifies Aurora kinase B as a critical therapeutic target for Merkel cell carcinoma” (Nature Communications, 2025).
Values joined by “and” are separate entries in the source; they are usually repeats but may differ in a detail not shown here. Equal entries are not always repeated. Structures can show the parent of a compound that is named as a salt. Where two headings read alike, the source gives them in different places.

Experiments:
Assay in all cases: qHTS cell viability (CellTiter-Glo, 72 h; primary and follow-up small molecule screen)
Format in all cases: cell-based, human
[1] = system: MCC13 cells (VN-MCC)
[2] = system: MCC26 cells (VN-MCC)
[3] = system: UISO cells (VN-MCC)
[4] = system: WAGA cells (VP-MCC)
[5] = system: MKL-1 cells (VP-MCC)
[6] = system: MKL-2 cells (VP-MCC)
[7] = follow-up screen, MCC13, replicate 1
[8] = follow-up screen, MCC13, replicate 2
[9] = follow-up screen, MCC13, replicate 3
[10] = follow-up screen, MCC26, replicate 1
[11] = follow-up screen, MCC26, replicate 2
[12] = follow-up screen, MCC26, replicate 3
[13] = follow-up screen, UISO, replicate 1
[14] = follow-up screen, UISO, replicate 2
[15] = follow-up screen, UISO, replicate 3
[16] = follow-up screen, WAGA, replicate 1
[17] = follow-up screen, WAGA, replicate 2
[18] = follow-up screen, WAGA, replicate 3
[19] = follow-up screen, MKL-1, replicate 1
[20] = follow-up screen, MKL-1, replicate 2
[21] = follow-up screen, MKL-1, replicate 3
[22] = follow-up screen, MKL-2, replicate 1
[23] = follow-up screen, MKL-2, replicate 2
[24] = follow-up screen, MKL-2, replicate 3

Row | Compound | Area under the dose-response curve (AUC) MCC13 Replicate 1 [1] | Area under the dose-response curve (AUC) MCC13 Replicate 2 [1] | Area under the dose-response curve (AUC) MCC13 Replicate 3 [1] | Area under the dose-response curve (AUC) MCC26 Replicate 1 [2] | Area under the dose-response curve (AUC) MCC26 Replicate 2 [2] | Area under the dose-response curve (AUC) MCC26 Replicate 3 [2] | Area under the dose-response curve (AUC) UISO Replicate 1 [3] | Area under the dose-response curve (AUC) UISO Replicate 2 [3] | Area under the dose-response curve (AUC) UISO Replicate 3 [3] | Area under the dose-response curve (AUC) WAGA Replicate 1 [4] | Area under the dose-response curve (AUC) WAGA Replicate 2 [4] | Area under the dose-response curve (AUC) WAGA Replicate 3 [4] | Area under the dose-response curve (AUC) MKL-1 Replicate 1 [5] | Area under the dose-response curve (AUC) MKL-1 Replicate 2 [5] | Area under the dose-response curve (AUC) MKL-1 Replicate 3 [5] | Area under the dose-response curve (AUC) MKL-2 Replicate 1 [6] | Area under the dose-response curve (AUC) MKL-2 Replicate 2 [6] | Area under the dose-response curve (AUC) MKL-2 Replicate 3 [6] | Area under the dose-response curve (AUC) MCC13 Replicate 1 [1, 7] | Area under the dose-response curve (AUC) MCC13 Replicate 2 [1, 8] | further results
1 | CN(C)c1ccc(C(=C2C=CC(=[N+](C)C)C=C2)c2ccccc2)cc1.CN(C)c1ccc(C(=C2C=CC(=[N+](C)C)C=C2)c2ccccc2)cc1.O=C(O)C(=O)O.O=C([O-])C(=O)O.O=C([O-])C(=O)O [Malachite green oxalate] | 284.7 | 297.6 | 312.3 | 302.0 | 333.8 | 303.0 | 285.6 | 315.1 | 271.1 | 353.3 | 347.4 | 369.9 | 266.3 | 258.0 | 280.5 | 272.5 | 267.6 | 282.8 | – | – | –
2 | O=C1c2c(O)ccc(O)c2C(=O)c2c(NCCNCCO)ccc(NCCNCCO)c21 [Mitoxantrone dihydrochloride] | 292.1 | 295.3 | 315.4 | 322.6 | 335.6 | 279.8 | 188.5 | 205.7 | 190.2 | 153.5 | 170.4 | 183.6 | 180.6 | 178.5 | 172.4 | 203.7 | 186.2 | 247.3 | – | – | –
3 | CC[n+]1c(-c2ccccc2)c2cc(N)ccc2c2ccc(N)cc21 [Ethidium bromide] | 459.3 | 449.7 | 444.5 | 428.7 | 414.7 | 412.7 | 333.5 | 324.2 | 301.4 | 318.2 | 323.3 | 317.1 | 280.1 | 244.2 | 288.2 | 300.3 | 311.5 | 284.3 | – | – | –
4 | [O-][n+]1ccccc1SSc1cccc[n+]1[O-] [Dipyrithione] | – | – | – | – | – | – | – | – | – | – | – | – | – | – | – | – | – | – | 333.5 | 320.8 | Area under the dose-response curve (AUC) MCC13 Replicate 3 [1, 9]: 288.3; Area under the dose-response curve (AUC) MCC26 Replicate 1 [2, 10]: 305.7; Area under the dose-response curve (AUC) MCC26 Replicate 2 [2, 11]: 302.8; Area under the dose-response curve (AUC) MCC26 Replicate 3 [2, 12]: 280.4; Area under the dose-response curve (AUC) UISO Replicate 1 [3, 13]: 241.8; Area under the dose-response curve (AUC) UISO Replicate 2 [3, 14]: 283.0; Area under the dose-response curve (AUC) UISO Replicate 3 [3, 15]: 225.1; Area under the dose-response curve (AUC) WAGA Replicate 1 [4, 16]: 319.9; Area under the dose-response curve (AUC) WAGA Replicate 2 [4, 17]: 346.1; Area under the dose-response curve (AUC) WAGA Replicate 3 [4, 18]: 356.9; Area under the dose-response curve (AUC) MKL-1 Replicate 1 [5, 19]: 254.8; Area under the dose-response curve (AUC) MKL-1 Replicate 2 [5, 20]: 246.8; Area under the dose-response curve (AUC) MKL-1 Replicate 3 [5, 21]: 245.5; Area under the dose-response curve (AUC) MKL-2 Replicate 1 [6, 22]: 287.6; Area under the dose-response curve (AUC) MKL-2 Replicate 2 [6, 23]: 277.7; Area under the dose-response curve (AUC) MKL-2 Replicate 3 [6, 24]: 248.6
5 | Oxamflatin | – | – | – | – | – | – | – | – | – | – | – | – | – | – | – | – | – | – | – | – | Area under the dose-response curve (AUC) [1]: 440.6 and 393.8 and 429.1; Area under the dose-response curve (AUC) [2]: 406.5 and 378.8 and 411.0; Area under the dose-response curve (AUC) [3]: 391.0 and 406.3 and 400.1; Area under the dose-response curve (AUC) [4]: 338.5 and 313.0 and 330.7; Area under the dose-response curve (AUC) [5]: 365.5 and 347.7 and 381.7; Area under the dose-response curve (AUC) [6]: 378.9 and 303.8 and 268.6
6 | Nc1nc(Cl)nc2c1ncn2[C@@H]1O[C@H](CO)[C@@H](O)[C@@H]1F [Clofarabine] | – | – | – | – | – | – | – | – | – | – | – | – | – | – | – | – | – | – | 326.5 | 337.3 | Area under the dose-response curve (AUC) MCC13 Replicate 3 [1, 9]: 347.1; Area under the dose-response curve (AUC) MCC26 Replicate 1 [2, 10]: 347.1; Area under the dose-response curve (AUC) MCC26 Replicate 2 [2, 11]: 310.6; Area under the dose-response curve (AUC) MCC26 Replicate 3 [2, 12]: 353.8; Area under the dose-response curve (AUC) UISO Replicate 1 [3, 13]: 305.8; Area under the dose-response curve (AUC) UISO Replicate 2 [3, 14]: 296.3; Area under the dose-response curve (AUC) UISO Replicate 3 [3, 15]: 317.2; Area under the dose-response curve (AUC) WAGA Replicate 1 [4, 16]: 261.2; Area under the dose-response curve (AUC) WAGA Replicate 2 [4, 17]: 248.1; Area under the dose-response curve (AUC) WAGA Replicate 3 [4, 18]: 263.5; Area under the dose-response curve (AUC) MKL-1 Replicate 1 [5, 19]: 270.1; Area under the dose-response curve (AUC) MKL-1 Replicate 2 [5, 20]: 265.5; Area under the dose-response curve (AUC) MKL-1 Replicate 3 [5, 21]: 283.6; Area under the dose-response curve (AUC) MKL-2 Replicate 1 [6, 22]: 314.2; Area under the dose-response curve (AUC) MKL-2 Replicate 2 [6, 23]: 343.5; Area under the dose-response curve (AUC) MKL-2 Replicate 3 [6, 24]: 397.2
7 | COc1ccc(C(=O)CC(=O)c2ccc(C(C)(C)C)cc2)cc1 [Avobenzone] | – | – | – | – | – | – | – | – | – | – | – | – | – | – | – | – | – | – | 464.5 | 464.7 | Area under the dose-response curve (AUC) MCC13 Replicate 3 [1, 9]: 487.0; Area under the dose-response curve (AUC) MCC26 Replicate 1 [2, 10]: 418.2; Area under the dose-response curve (AUC) MCC26 Replicate 2 [2, 11]: 424.5; Area under the dose-response curve (AUC) MCC26 Replicate 3 [2, 12]: 411.6; Area under the dose-response curve (AUC) UISO Replicate 1 [3, 13]: 448.1; Area under the dose-response curve (AUC) UISO Replicate 2 [3, 14]: 466.1; Area under the dose-response curve (AUC) UISO Replicate 3 [3, 15]: 426.5; Area under the dose-response curve (AUC) WAGA Replicate 1 [4, 16]: 495.5; Area under the dose-response curve (AUC) WAGA Replicate 2 [4, 17]: 492.2; Area under the dose-response curve (AUC) WAGA Replicate 3 [4, 18]: 489.4; Area under the dose-response curve (AUC) MKL-1 Replicate 1 [5, 19]: 452.4; Area under the dose-response curve (AUC) MKL-1 Replicate 2 [5, 20]: 457.3; Area under the dose-response curve (AUC) MKL-1 Replicate 3 [5, 21]: 467.2; Area under the dose-response curve (AUC) MKL-2 Replicate 1 [6, 22]: 491.6; Area under the dose-response curve (AUC) MKL-2 Replicate 2 [6, 23]: 475.6; Area under the dose-response curve (AUC) MKL-2 Replicate 3 [6, 24]: 463.7
